The text below walks through data of publication PMC12567398, “New Assay Systems to Characterize the Broad-Spectrum Antiherpesviral and Non-Herpesviral Activity of Cyclin-Dependent Kinase (CDK) 8 Inhibitors” (Pharmaceuticals, 2025).

One data set deals with KSHV. More on the design: method as in ref 35, 38 (a number printed in a supplementary file, which may have a reference list of its own: not looked up in the article's list). Particulars: Table S1; read-out: antiviral EC50, KSHV; cited from earlier work.
The subject of data set [1] is SARS-CoV-2 d6-YFP. Briefly: microbe, parasite or virus in culture.
The next data set relates to MHV-68-Luc. Briefly: MHV-68-Luc luciferase reporter assay. The data set is classed as cell-based, murine herpesvirus 68. The settings on record: Murine herpesvirus. A general note: A reporter such as luciferase makes a cellular process visible.
For a further data set, the system named is HHV-6A. More on the design: method as in ref 35 (a number printed in a supplementary file, which may have a reference list of its own: not looked up in the article's list). Particulars: Table S1; J-Jhan cells; read-out: antiviral EC50, HHV-6A (J-Jhan); cited from earlier work.
The next data set relates to JCPyV. More on the design: method as in ref 35, 38 (a number printed in a supplementary file, which may have a reference list of its own: not looked up in the article's list). The settings on record: Table S1; read-out: antiviral EC50, JCPyV; cited from earlier work.
Another data set has as its system HCMV. On the set-up: method as in ref 35, 38 (a number printed in a supplementary file, which may have a reference list of its own: not looked up in the article's list). Particulars: Table S1; read-out: antiviral EC50, HCMV; cited from earlier work.
A short description of another data set: in vitro. The settings on record: human.
Another data set has as its system EHV-1. Kind of data set: EHV-1-specific qPCR of virus release into culture medium. Type of data set: cell-based, equine herpesvirus 1.
Another data set relates to MCMV. On the set-up: method as in ref 35, 38 (a number printed in a supplementary file, which may have a reference list of its own: not looked up in the article's list). Particulars: Table S1; read-out: antiviral EC50, MCMV; cited from earlier work.
Data set [2] in a line: Neutral Red uptake cell viability assay, Vero. The settings on record: African green monkey, CC50, Vero (Fig 4F).
The test system of a further data set is ChCMV. On the set-up: method as in ref 35, 38 (a number printed in a supplementary file, which may have a reference list of its own: not looked up in the article's list). The settings on record: Table S1; read-out: antiviral EC50, ChCMV; cited from earlier work.
Data set [3] has as its system Epstein–Barr virus P3HR-1. Kind of data set: EBV lytic assay in TPA-induced P3HR-1 cells, qPCR. The settings on record: human gammaherpesvirus 4, P3HR-1; Table S1; read-out: antiviral EC50, EBV. Type of data set: cell-based. On the technique in general: In qPCR the cycle at which signal appears reflects the starting amount.
The nature of data set [4]: Neutral Red uptake cell viability assay, MEF. The settings on record: mouse.
Data set [5] relates to SARS-CoV-2 d6-YFP.
A short description of data set [6]: Neutral Red uptake cell viability assay, COS-7. The settings on record: African green monkey.
Another data set has as its system HHV-6A-GFP. Briefly: HHV-6A plaque reduction assay in HFFs. The settings on record: Human betaherpesvirus 6A.
For a further data set, the system named is HAdV. On the set-up: method as in ref 35, 38 (a number printed in a supplementary file, which may have a reference list of its own: not looked up in the article's list). Particulars: Table S1; read-out: antiviral EC50, HAdV; cited from earlier work.
Another data set concerns RCMV. On the set-up: method as in ref 35, 38 (a number printed in a supplementary file, which may have a reference list of its own: not looked up in the article's list). Particulars: Table S1; read-out: antiviral EC50, RCMV; cited from earlier work.
The next data set relates to EHV-1-GFP. Kind of data set: EHV-1-GFP antiviral assay, GFP fluorometry. Type of data set: cell-based, equine herpesvirus 1. Particulars: COS-7.
The subject of a further data set is vaccinia virus VV IHD-5. Briefly: microbe, parasite or virus in culture. Type of data set: cell-based. The settings on record: Orthopoxvirus vaccinia, read-out: antiviral EC50, VV.
Data set [7] can be described thus: Neutral Red uptake cell viability assay, Caco-2. The settings on record: human.
A short description of data set [8]: Neutral Red uptake / Alamar Blue cell viability assay, 293T. Particulars: human. On the technique in general: The colour change of resazurin is a common sign of viable cells or microbes.
A further data set relates to HSV-1. On the set-up: method as in ref 35, 38 (a number printed in a supplementary file, which may have a reference list of its own: not looked up in the article's list). The settings on record: Table S1; read-out: antiviral EC50, HSV-1; cited from earlier work.
For another data set, the system named is VZV. On the set-up: method as in ref 35, 38 (a number printed in a supplementary file, which may have a reference list of its own: not looked up in the article's list). Particulars: Table S1; read-out: antiviral EC50, VZV; cited from earlier work.
In another data set the test system is RhCMV. More on the design: method as in ref 35, 38 (a number printed in a supplementary file, which may have a reference list of its own: not looked up in the article's list). Particulars: Table S1; read-out: antiviral EC50, RhCMV; cited from earlier work.
A short description of data set [9]: Neutral Red uptake cell viability assay, HFF. Particulars: human.
The next data set deals with Caco-2 cells. Kind of data set: Neutral Red uptake cell viability assay, Caco-2. Particulars: read-out: mean CC50; Caco-2 (Fig 7D).

A word on the EC50: it is the concentration at which the effect is half-maximal.

Like-named read-outs stand apart in the source and are kept apart here.

In the case of `CN(C)C(=O)Cn1cc(-c2ccc(-c3cncc4ccccc34)cc2)cn1` [BI-1347], the EC50 with KSHV was 300 ± 600 nM; in the data set on SARS-CoV-2 d6-YFP [1] (Severe acute respiratory syndrome coronavirus 2, Caco-2, 30 h, read-out: Antiviral mean EC50 based on YFP measurements), at least 15400 nM; in the data set on SARS-CoV-2 d6-YFP [1] (Severe acute respiratory syndrome coronavirus 2, Caco-2, read-out: antiviral EC50, SARS-CoV-2), 22800 ± 3200 nM; in the data set on MHV-68-Luc (COS-7, read-out: antiviral EC50, MHV-68 (COS-7), Table S1, COS-7), 0.1 ± 0.1 nM; with MHV-68-Luc (Vero, read-out: antiviral EC50, MHV-68 (Vero), Table S1, Vero) it was 0.5 ± 0.03 nM; with MHV-68-Luc (read-out: antiviral EC50, MHV-68 (HFF), Table S1, HFF), 40 ± 20 nM. Also, the EC50 in the data set with MHV-68-Luc (read-out: antiviral EC50, MHV-68 (MEF), Table S1, MEF) was 6 ± 2 nM; with HHV-6A, over 50000 nM; in the data set on JCPyV, 700 ± 1600 nM; with HCMV, 0.9 ± 0.7 nM; in the data set with EHV-1 (EHV-1, qPCR / COS-7, read-out: EC50), under 3 nM; in the data set on EHV-1 (Equus caballus) it was 20 ± 50 nM. Moreover, the EC50 was 30 ± 30 nM in the data set on EHV-1 (Equus caballus, read-out: antiviral EC50, EHV-1 (HFF)); 20 ± 10 nM with MCMV; 10 ± 20 nM with ChCMV; 5500 ± 4200 nM in data set [3]; 200 ± 200 nM in the data set with HHV-6A-GFP (read-out: Antiviral mean EC50 based on plaque assay measurements); 300 ± 200 nM in the data set on HHV-6A-GFP (read-out: antiviral EC50, HHV-6A (HFF)). In addition, the EC50 in the data set on HAdV was 50 ± 100 nM; with RCMV it was 2 ± 4 nM; in the data set on EHV-1-GFP, 80 nM; in the data set on vaccinia virus VV IHD-5 it was over 50000 nM; with HSV-1, over 50000 nM; in the data set on VZV, 26000 ± 10000 nM. For the same molecule, the EC50 in the data set on RhCMV was 0.4 ± 0.5 nM. The CC50 in “in vitro” is over 100000 nM; in data set [9] (CC50, HFF, listed with qPCR / HFF (Fig 1E)) it was over 50000 nM; in [9] (mean CC50, HFF, HHV-6A assay conditions (Fig 2D)) it was over 100000 nM. For the same molecule, the CC50 at 7 d in data set [2] and in data set [4] was over 100000 nM each time. Besides, the “CDK8 inhibitor sensitivity of SARS-CoV-2 in Caco-2 cells” value in the data set with SARS-CoV-2 d6-YFP [5] (in words) is “low level of sensitivity”. The CC50 at 4 d in data set [6] (CC50, COS-7 (Fig 4F)) is over 100000 nM; in data set [6] (CC50, COS-7, listed with GFP / COS-7 (Fig 1E)) it was over 50000 nM; in [6] (CC50, COS-7, listed with qPCR / COS-7 (Fig 1E)), over 50000 nM. In [7], the CC50 at 3 d was over 100000 nM. The CC50 at 2 d in data set [8] worked out at 93000 ± 5000 nM.
Take `O=c1nc(NO)ccn1[C@@H]1O[C@H](CO)[C@@H](O)[C@H]1O` [EIDD-1931]: in the data set on SARS-CoV-2 d6-YFP [5] (read-out: Antiviral mean EC50 based on YFP measurements, SARS-CoV-2 d6-YFP, Caco-2, […]), the EC50 came to 4100 ± 1400 nM. For the same molecule, the CC50 in the data set on Caco-2 cells is over 100000 nM.
